Converted amounts (≈) assume the structure as drawn.

A word on the fraction unbound: it is the share of the substance not bound to proteins or other matrix. A low value points to little free substance. One may read the AUC(0-t) as the area under the concentration-time curve up to a stated or last time point. A word on the AUC: it is the area under the concentration-time curve, a measure of exposure. High values mean high exposure, low ones low exposure. As a reminder, the EC50 is the concentration that produces a half-maximal response. For orientation: IC50 means the concentration that inhibits the measured activity by half.

Series [1] can be described thus: Percentage unbound in human plasma. It counts as ADME, cell-free.
The nature of series [2]: AUC (0 to 7 hrs) in rat at 10 mg/kg, po. To be noted: in vivo. It counts as ADME, organism-based. The arrangement: time < 7 hr, dose 10 mg/kg, route oral.
Series [3] in a line: AUC in mouse at 25 mg/kg, po. Type of series: ADME, organism-based. To be noted: in vivo.
Series [4] has as its target T1, Nuclear receptor ROR-beta (Homo sapiens, UniProt Q92753).
T1 sequence (Q92753 whole entry): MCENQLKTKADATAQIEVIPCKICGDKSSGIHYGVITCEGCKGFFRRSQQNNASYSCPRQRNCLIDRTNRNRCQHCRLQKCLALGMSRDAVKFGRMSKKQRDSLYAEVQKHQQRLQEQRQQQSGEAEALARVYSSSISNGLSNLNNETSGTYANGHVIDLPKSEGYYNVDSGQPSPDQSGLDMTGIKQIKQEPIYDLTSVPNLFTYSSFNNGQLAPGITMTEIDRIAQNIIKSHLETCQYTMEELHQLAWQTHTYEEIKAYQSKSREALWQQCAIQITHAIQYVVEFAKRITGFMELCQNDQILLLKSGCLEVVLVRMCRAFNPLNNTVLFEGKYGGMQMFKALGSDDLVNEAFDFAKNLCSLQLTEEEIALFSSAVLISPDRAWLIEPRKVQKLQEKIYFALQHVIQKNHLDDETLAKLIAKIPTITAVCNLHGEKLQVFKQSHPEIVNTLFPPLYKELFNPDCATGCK
Nature of the series: Inverse agonist activity at RORbeta (unknown origin).

Series [5] concerns the target T2, Nuclear receptor subfamily 1 group I member 2 (Homo sapiens, UniProt O75469).
T2 sequence (O75469 whole entry): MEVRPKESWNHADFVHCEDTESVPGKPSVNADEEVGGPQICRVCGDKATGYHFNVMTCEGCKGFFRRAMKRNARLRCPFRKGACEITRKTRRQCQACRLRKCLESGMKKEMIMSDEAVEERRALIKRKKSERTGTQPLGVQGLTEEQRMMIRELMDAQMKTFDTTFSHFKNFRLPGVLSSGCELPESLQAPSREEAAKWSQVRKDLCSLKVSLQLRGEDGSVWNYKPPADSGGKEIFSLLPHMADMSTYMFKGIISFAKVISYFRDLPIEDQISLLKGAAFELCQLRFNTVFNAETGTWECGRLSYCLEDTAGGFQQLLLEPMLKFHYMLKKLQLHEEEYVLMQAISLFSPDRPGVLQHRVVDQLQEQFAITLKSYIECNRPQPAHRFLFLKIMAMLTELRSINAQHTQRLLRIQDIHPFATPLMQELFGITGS
In words: Activation of PXR (unknown origin).

Series [6] is described as follows: Percentage unbound in rat plasma. Type of series: ADME, cell-free.
Series [7] is described as follows: Kinetic aqueous solubility of the compound. Particulars: buffer; read-out: Kinetic_solubility. It counts as physicochemical.
The target of series [8] is T3, Nuclear receptor ROR-alpha (Homo sapiens, UniProt P35398).
T3 sequence (P35398 whole entry): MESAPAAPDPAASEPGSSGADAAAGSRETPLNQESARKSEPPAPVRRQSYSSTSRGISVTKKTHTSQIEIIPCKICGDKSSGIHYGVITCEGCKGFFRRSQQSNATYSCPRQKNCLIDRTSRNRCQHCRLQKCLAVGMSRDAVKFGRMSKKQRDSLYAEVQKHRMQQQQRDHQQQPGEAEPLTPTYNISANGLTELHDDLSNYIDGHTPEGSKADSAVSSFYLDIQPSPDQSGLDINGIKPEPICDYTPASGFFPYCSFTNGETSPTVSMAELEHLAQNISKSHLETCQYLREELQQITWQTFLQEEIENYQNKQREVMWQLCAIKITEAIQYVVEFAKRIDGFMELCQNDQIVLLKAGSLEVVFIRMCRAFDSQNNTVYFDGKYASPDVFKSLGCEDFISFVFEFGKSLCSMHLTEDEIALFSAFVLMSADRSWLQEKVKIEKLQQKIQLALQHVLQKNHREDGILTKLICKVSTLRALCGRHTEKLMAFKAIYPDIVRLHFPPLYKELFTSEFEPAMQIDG
In words: Inverse agonist activity at RORalpha (unknown origin).

Series [9] deals with T4, Nuclear receptor ROR-gamma (Mus musculus, UniProt P51450).
T4 sequence (P51450 whole entry): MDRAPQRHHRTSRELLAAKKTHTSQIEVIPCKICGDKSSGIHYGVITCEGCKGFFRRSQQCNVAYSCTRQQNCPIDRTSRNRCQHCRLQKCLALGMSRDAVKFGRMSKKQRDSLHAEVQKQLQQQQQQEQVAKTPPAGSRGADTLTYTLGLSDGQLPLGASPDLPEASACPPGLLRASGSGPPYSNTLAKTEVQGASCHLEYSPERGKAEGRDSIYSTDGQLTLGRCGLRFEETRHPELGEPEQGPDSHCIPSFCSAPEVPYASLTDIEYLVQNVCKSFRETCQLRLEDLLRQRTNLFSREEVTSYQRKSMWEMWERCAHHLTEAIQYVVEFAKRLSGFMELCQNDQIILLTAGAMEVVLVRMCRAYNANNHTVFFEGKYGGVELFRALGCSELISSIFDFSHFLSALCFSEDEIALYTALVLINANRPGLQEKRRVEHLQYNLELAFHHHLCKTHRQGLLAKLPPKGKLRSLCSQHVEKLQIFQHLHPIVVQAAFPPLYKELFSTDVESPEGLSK
Nature of the series: Inverse agonist activity at RORgamma in C57BL/6 mouse splenocytes assessed as reduction of IL-17 production after 2 days by ELISA. Type of series: cell-based. (ELISA stands for enzyme-linked immunosorbent assay.)

Series [10] can be described thus: AUC in po dosed rat. Type of series: ADME, organism-based. Particulars: in vivo.
Series [11] addresses T5, Nuclear receptor ROR-gamma (Homo sapiens, UniProt P51449).
T5 sequence (P51449 whole entry): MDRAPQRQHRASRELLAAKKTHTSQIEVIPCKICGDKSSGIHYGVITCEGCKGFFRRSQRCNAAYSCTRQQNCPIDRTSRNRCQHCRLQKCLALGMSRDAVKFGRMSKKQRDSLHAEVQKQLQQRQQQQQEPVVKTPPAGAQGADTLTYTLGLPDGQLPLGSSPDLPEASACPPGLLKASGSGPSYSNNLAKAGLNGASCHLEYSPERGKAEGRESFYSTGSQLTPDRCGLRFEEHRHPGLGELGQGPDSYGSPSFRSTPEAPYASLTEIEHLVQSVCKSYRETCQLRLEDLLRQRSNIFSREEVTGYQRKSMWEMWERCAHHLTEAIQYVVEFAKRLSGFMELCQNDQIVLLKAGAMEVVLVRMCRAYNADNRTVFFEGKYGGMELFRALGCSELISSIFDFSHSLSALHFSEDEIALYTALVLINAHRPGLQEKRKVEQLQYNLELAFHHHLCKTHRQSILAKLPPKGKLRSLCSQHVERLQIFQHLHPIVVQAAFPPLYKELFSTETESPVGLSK
Nature of the series: Inverse agonist activity at RORgamma (unknown origin) transfected in HEK293T cells after 16 to 20 hrs by GAL4 luciferase reporter gene assay. It counts as functional, cell-based, HEK-293T.

The target of series [12] is T5, Nuclear receptor ROR-gamma. Nature of the series: Binding affinity to GST-tagged RORgamma LBD (unknown origin) assessed as inhibition of interaction with co-activatior peptide TRAP220 preincubated for 1 hr followed by TRAP220 addition by FRET analysis.

As to `[2H]C([2H])([2H])N(C(=O)c1c(F)cccc1Cl)c1ccc(-c2cc(NC(C)=O)nn2C(C)C)cc1N1CC2CC2C1` (stereo unspecified), the figures for the fraction unbound in series [1] and in [6] were 0.014 and 0.002, respectively. Also, in series [2], the AUC(0-t) at 7 h was found to be 1040 ng·h/mL. This compound also showed an AUC in series [3] of 2830 ng·h/mL. Besides, the EC50 was determined as 1300 nM in series [4], 9900 nM in [5], 1600 nM in series [8] and 38 nM in series [9]. Moreover, the solubility kinetic in [7] was determined as 2.1 µg/mL (≈ 4.09 µM).

As for `[2H]C([2H])([2H])N(C(=O)c1c(F)cccc1Cl)c1ccc(-c2cc(C(N)=O)ccc2Cl)cc1OCC(F)(F)F`, the fraction unbound was 0.003 in [1] and 0.002 in [6]. Moreover, the AUC in series [10] was 3130 ng·h/mL. The values for the EC50 in [11] and in series [9] were 98 nM and 895 nM, respectively. Also, the IC50 in series [12] turned out to be 29 nM. Moreover, the solubility kinetic in series [7] was found to be 0.3 µg/mL (≈ 0.579 µM).

`CC(=O)Nc1nc(-c2cnc(N(C)C(=O)c3c(F)cccc3Cl)c(N3CCCCC3)c2)n(C(C)C)n1`: in series [11], the concentration giving a half-maximal response (EC50) is > 1000 nM. Further, the half-maximal inhibitory concentration (IC50) in series [12] was > 5000 nM.

Regarding `[2H]C([2H])([2H])N(C(=O)c1c(F)cccc1Cl)c1ccc(-c2cc(NC(=O)C(C)C)nn2C(C)C)cc1N1CC2CC2C1` (stereo unspecified), the EC50 in series [11] is 15 nM; in [9] it was 128 nM.

Regarding `[2H]C([2H])([2H])N(C(=O)c1c(F)cccc1Cl)c1ccc(-c2cc(NC(=O)OC3(C)CC3)nn2C(C)C)cc1N1CC2CC2C1` (stereo unspecified), the EC50 in [11] is 150 nM.

As to `[2H]C([2H])([2H])N(C(=O)c1c(F)cccc1Cl)c1ccc(-c2cc(NC(=O)NC(CO)CO)nn2C(C)C)cc1N1CC2CC2C1` (stereo unspecified), the EC50 in series [11] came out at 71 nM.

For the compound `CC(=O)Nc1cc(-c2cnc(N(C)C(=O)c3c(F)cccc3Cl)c(N3CCCCC3)c2)n(C(C)C)n1`, the fraction unbound in [1] turned out to be 0.076; in series [6], 0.013. In addition, the AUC(0-t) at 7 h in series [2] is 927 ng·h/mL. This compound registered an AUC in series [3] of 2260 ng·h/mL. Further, the EC50 in [4] was found to be 2300 nM; in series [5], 5400 nM; in series [8], 9300 nM; in series [9], 34 nM. In [7], the solubility kinetic worked out at 37.4 µg/mL (≈ 72.9 µM).

(Values after ChEMBL document CHEMBL3596090, “Discovery of novel pyrazole-containing benzamides as potent RORγ inverse agonists” (Bioorg Med Chem Lett, 2015).)
